Read-outs that look alike come from different tables or passages of the source.
Columns and labels:
[1] = molecular target: T1, cytochrome P450 1A2 (Homo sapiens, UniProt P05177); conditions: by oxidation; cited from earlier work
[2] = system: U937; conditions: AML; cited from earlier work
[3] = system: primary AML cells; conditions: cited from earlier work
[4] = system: K562; conditions: CML; cited from earlier work
[5] = system: K562 cells; conditions: cited from earlier work
[6] = system: Jurkat cells; conditions: inducing phosphorylation of c-Myb; cited from earlier work
[7] = system: NB4; conditions: AML; cited from earlier work
[8] = system: HT29; conditions: colorectal cancer; cited from earlier work
[9] = system: murine cancer models; conditions: mouse, in vivo; cited from earlier work
[10] = system: human myeloblastic leukemic cells; conditions: cited from earlier work
[11] = system: hepatic cytochrome P450 (CYP); conditions: hepatic CYP-mediated; cited from earlier work
[12] = system: patients; conditions: cited from earlier work
[13] = system: HUVEC; conditions: cited from earlier work
[14] = system: Walker 256 carcino-sarcoma; conditions: in vivo; cited from earlier work
[15] = molecular target: T1, cytochrome P450 1A2; conditions: cited from earlier work
[16] = system: HUVEC; conditions: cited from earlier work; remark: listed apart in the source
[17] = system: HL-60 myeloid cells; conditions: cited from earlier work
[18] = system: VEGF; conditions: cited from earlier work
[19] = molecular target: T2, STK25 (Homo sapiens, UniProt O00506); experiment: competition binding kinase scan; conditions: FIGS. 4 and 6
T2 construct: DNA tag / T7 phage fusion; made in house; host or cells: T7 phage in E. coli (BL21-derived) or HEK-293
T2 sequence (O00506 whole entry, the tested form may be a part): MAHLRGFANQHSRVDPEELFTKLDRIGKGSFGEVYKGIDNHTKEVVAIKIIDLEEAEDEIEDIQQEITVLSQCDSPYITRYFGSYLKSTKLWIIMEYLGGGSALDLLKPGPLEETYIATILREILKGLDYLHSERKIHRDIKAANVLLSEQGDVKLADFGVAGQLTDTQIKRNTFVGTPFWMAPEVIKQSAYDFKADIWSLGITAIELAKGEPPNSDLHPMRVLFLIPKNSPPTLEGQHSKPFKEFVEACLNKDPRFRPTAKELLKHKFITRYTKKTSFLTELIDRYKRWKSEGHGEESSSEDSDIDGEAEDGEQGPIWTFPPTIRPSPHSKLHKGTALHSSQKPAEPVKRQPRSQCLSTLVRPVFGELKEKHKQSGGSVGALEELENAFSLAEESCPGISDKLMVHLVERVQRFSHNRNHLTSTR
Method: (§1) The scanning procedure is based on a competition binding assay that quantitatively measures the ability of a compound to compete with an immobilized, active-site directed ligand. The assay is performed by combining three components: DNA-tagged kinase; immobilized ligand; and a test compound. The ability of the test compound to compete with the immobilized ligand is measured via quantitative PCR of the DNA tag. This procedure is described in T. A. Carter et al., “Inhibition of Drug-Resistant Mutants of ABL, KIT, and EGF Receptor Kinases,” Proc. Natl. Acad. Sci. USA 102: 11011-11016 (2005), incorporated herein by this reference.
(§2) Kinase assays were carried out as follows: For most assays, kinase-tagged T7 phage strains were grown in parallel in 24-well blocks in an Escherichia coli host derived from the BL21 strain. E. coli were grown to log-phase and infected with T7 phage from a frozen stock (multiplicity of infection=0.4) and incubated with shaking at 32° C. until lysis (90-150 minutes). The lysates were centrifuged (6,000×g) and filtered (0.2 μm) to remove cell debris. The remaining kinases were produced in HEK-293 cells and subsequently tagged with DNA for qPCR detection. Streptavidin-coated magnetic beads were treated with biotinylated small molecule ligands for 30 minutes at room temperature to generate affinity resins for kinase assays. The liganded beads were blocked with excess biotin and washed with blocking buffer (SeaBlock (Pierce), 1% BSA, 0.05% Tween 20, 1 mM DTT) to remove unbound ligand and to reduce nonspecific phage binding. Binding reactions were assembled by combining kinases, liganded affinity beads, and test compounds in 1× binding buffer (20% SeaBlock, 0.17×PBS, 0.05% Tween 20, 6 mM DTT). Test compounds were prepared as 40×stocks in 100% DMSO and directly diluted into the assay. All reactions were performed in polypropylene 384-well plates in a final volume of 0.04 mL. The assay plates were incubated at room temperature with shaking for 1 hour and the affinity beads were washed with wash buffer (1×PBS, 0.05% Tween 20). The beads were then re-suspended in elution buffer (1×PBS, 0.05% Tween 20, 0.5 μM non-biotinylated affinity ligand) and incubated at room temperature with shaking for 30 minutes. The kinase concentration in the eluates was measured by qPCR.
(§3) The compounds were screened at the requested concentrations, and results for primary screen binding interactions were reported as “% Ctrl,” where lower numbers indicate stronger hits (i.e., an increased degree of inhibition of kinase activity) as follows (Equation (1)): […]

[20] = molecular target: T3, NEK9 (Homo sapiens, UniProt Q8TD19); experiment: competition binding kinase scan
T3 construct: DNA tag / T7 phage fusion; made in house; host or cells: T7 phage in E. coli (BL21-derived) or HEK-293
T3 sequence (Q8TD19 whole entry, the tested form may be a part): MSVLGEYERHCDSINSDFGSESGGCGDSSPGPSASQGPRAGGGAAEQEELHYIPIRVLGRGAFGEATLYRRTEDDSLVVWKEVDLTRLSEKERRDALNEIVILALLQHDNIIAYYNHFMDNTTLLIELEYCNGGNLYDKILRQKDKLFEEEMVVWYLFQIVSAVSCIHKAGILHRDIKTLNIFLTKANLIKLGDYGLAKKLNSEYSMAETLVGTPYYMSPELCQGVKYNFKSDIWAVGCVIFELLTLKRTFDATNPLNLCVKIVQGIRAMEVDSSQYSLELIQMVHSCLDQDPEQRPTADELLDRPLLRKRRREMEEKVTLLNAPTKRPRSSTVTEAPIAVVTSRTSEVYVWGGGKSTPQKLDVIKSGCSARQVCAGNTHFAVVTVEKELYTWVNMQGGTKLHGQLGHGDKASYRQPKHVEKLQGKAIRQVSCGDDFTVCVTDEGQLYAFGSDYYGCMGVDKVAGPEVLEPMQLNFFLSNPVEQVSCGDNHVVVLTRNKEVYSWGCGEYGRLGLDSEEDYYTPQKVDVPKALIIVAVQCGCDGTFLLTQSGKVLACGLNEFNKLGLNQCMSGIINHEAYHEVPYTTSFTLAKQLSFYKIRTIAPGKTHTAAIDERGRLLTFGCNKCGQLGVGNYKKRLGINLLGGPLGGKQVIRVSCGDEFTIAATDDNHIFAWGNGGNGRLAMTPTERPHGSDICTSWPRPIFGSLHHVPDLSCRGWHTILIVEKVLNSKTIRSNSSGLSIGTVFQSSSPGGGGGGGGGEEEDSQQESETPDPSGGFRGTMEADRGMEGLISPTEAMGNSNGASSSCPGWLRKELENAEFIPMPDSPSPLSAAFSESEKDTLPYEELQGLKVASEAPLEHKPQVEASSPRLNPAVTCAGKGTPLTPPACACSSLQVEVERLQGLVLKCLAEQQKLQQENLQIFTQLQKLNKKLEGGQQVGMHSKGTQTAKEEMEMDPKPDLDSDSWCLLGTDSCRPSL
Method: as §1, §2, §3

[21] = molecular target: T4, ERBB3 (Homo sapiens, UniProt P21860); experiment: competition binding kinase scan; conditions: FIGS. 4 and 6
T4 construct: DNA tag / T7 phage fusion; made in house; host or cells: T7 phage in E. coli (BL21-derived) or HEK-293
T4 sequence (P21860 20-1342): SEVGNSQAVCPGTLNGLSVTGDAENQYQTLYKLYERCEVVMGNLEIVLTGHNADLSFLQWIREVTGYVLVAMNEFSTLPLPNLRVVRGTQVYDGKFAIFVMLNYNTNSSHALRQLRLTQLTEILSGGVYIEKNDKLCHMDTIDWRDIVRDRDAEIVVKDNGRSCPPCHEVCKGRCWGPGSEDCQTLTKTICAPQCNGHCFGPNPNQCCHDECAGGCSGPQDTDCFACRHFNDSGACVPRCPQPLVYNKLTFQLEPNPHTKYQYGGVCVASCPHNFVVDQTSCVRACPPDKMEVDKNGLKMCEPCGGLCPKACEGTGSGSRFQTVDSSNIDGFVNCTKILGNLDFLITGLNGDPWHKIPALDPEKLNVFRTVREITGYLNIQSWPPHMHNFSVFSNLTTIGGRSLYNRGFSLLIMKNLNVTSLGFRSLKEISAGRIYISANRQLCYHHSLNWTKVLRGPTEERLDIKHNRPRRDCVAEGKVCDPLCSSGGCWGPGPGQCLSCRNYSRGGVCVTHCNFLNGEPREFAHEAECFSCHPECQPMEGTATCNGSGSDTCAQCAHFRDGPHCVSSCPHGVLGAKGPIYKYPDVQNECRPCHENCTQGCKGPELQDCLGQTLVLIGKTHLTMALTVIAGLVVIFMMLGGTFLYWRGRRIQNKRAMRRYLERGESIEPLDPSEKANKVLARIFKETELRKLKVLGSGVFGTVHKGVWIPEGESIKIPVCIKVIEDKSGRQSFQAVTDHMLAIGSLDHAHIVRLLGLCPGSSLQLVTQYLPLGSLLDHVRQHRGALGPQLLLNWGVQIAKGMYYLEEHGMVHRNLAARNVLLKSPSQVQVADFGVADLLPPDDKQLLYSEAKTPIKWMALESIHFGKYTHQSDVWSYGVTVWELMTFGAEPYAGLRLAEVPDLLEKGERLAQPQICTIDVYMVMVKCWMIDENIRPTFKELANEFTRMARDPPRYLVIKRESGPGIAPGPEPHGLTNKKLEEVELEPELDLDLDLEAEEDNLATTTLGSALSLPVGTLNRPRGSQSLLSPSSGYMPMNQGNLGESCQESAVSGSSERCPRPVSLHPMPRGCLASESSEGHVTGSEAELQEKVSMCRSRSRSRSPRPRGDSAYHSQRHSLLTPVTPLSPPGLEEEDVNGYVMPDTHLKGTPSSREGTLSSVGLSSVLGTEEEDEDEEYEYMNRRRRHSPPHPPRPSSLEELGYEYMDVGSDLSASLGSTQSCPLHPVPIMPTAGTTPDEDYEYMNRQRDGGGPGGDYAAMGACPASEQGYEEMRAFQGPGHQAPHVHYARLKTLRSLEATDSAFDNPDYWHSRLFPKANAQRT
Method: as §1, §2, §3

[22] = Ames; cited from earlier work
[23] = system: HT-29 colorectal xenografts; conditions: in vivo; cited from earlier work
[24] = system: HL-60; conditions: AML; cited from earlier work
[25] = molecular target: cytochrome P450 2C19 (Homo sapiens, UniProt P33261); conditions: by oxidation; cited from earlier work
cytochrome P450 2C19, sequence (P33261 whole entry): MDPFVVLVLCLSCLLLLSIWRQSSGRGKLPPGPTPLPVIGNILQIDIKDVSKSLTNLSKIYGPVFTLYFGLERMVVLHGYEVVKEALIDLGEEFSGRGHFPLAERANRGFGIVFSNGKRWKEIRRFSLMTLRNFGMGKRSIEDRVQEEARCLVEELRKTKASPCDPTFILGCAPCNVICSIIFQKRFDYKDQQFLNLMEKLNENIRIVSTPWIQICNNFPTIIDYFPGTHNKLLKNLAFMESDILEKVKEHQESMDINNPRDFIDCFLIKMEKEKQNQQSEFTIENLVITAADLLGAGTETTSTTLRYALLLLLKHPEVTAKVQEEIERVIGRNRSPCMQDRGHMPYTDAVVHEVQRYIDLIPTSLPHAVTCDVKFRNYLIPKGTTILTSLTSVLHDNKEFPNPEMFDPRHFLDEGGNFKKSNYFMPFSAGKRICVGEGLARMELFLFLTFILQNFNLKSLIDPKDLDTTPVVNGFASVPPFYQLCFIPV

[26] = molecular target: glycogen synthase kinase-3β (GSK-3β) (Homo sapiens, UniProt P49841); conditions: cited from earlier work
glycogen synthase kinase-3β (GSK-3β), sequence (P49841 whole entry, species assumed): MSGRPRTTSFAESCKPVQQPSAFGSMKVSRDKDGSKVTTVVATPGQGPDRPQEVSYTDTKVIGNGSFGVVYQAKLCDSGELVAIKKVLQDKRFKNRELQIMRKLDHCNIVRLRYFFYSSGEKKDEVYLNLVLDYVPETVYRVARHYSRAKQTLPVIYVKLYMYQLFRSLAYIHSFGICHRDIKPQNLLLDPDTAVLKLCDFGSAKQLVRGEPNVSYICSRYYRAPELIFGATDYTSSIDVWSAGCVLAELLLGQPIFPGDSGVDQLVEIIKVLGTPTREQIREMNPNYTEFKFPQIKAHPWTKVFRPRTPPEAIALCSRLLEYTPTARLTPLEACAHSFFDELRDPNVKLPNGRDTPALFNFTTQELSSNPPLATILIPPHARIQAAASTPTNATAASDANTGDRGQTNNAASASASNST

[27] = system: dogs; conditions: 10 mg/kg/d p.o. for 6 months; cited from earlier work
[28] = system: VCAM-1; conditions: cited from earlier work
[29] = system: ECV304; conditions: cited from earlier work
[30] = molecular target: cytochrome P450 2C8 (Homo sapiens, UniProt P10632); conditions: cited from earlier work
cytochrome P450 2C8, sequence (P10632 whole entry): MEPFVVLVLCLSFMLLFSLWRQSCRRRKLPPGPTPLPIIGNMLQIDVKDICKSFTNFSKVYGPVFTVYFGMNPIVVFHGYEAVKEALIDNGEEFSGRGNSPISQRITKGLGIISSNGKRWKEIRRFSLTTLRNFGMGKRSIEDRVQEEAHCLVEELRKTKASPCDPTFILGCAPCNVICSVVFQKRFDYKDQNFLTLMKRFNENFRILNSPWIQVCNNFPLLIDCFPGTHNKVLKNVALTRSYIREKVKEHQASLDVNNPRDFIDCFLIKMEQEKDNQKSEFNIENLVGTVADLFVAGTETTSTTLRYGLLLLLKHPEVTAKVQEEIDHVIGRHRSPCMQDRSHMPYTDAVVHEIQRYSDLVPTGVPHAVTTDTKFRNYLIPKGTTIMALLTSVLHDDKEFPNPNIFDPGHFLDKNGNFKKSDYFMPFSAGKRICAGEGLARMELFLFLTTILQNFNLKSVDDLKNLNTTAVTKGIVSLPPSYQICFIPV

[31] = system: AML NOD/SCID model; conditions: in vivo; cited from earlier work
[32] = system: Lewis lung sarcoma; conditions: in vivo; cited from earlier work
[33] = system: uridine glucuronyltransferases (UGT); conditions: direct conjugation without initial cytochrome P450 oxidation, more polar metabolites; cited from earlier work
[34] = system: W256 cells; conditions: cited from earlier work
[35] = system: ECV304; conditions: cited from earlier work; remark: listed apart in the source
[36] = system: rats; conditions: up to 400 mg/kg/d p.o. for 30 days; cited from earlier work
[37] = system: primary AML; conditions: cited from earlier work
[38] = system: AML cell lines; conditions: cited from earlier work
[39] = system: HL-60 cells; conditions: cited from earlier work
[40] = system: malignant cell lines, particularly AML cell lines (MV 4-11, myeloid cell lines); experiment: viability of cancer cell lines after meisoindigo treatment; format: cell-based; conditions: 0.1-100 μM, 24 and 48 hours
Method: Viability at 48 hours is shown by (♦); viability at 24 hours is shown by (▪).

[41] = system: HT-29 colorectal cell lines; conditions: cited from earlier work
[42] = system: chronic myelogenous leukemia (CML) patients; conditions: cited from earlier work
[43] = system: AML cells; conditions: DKO insensitive to chemotherapy; cited from earlier work
[44] = Chromabs; cited from earlier work

T1 sequence (P05177 whole entry, species assumed): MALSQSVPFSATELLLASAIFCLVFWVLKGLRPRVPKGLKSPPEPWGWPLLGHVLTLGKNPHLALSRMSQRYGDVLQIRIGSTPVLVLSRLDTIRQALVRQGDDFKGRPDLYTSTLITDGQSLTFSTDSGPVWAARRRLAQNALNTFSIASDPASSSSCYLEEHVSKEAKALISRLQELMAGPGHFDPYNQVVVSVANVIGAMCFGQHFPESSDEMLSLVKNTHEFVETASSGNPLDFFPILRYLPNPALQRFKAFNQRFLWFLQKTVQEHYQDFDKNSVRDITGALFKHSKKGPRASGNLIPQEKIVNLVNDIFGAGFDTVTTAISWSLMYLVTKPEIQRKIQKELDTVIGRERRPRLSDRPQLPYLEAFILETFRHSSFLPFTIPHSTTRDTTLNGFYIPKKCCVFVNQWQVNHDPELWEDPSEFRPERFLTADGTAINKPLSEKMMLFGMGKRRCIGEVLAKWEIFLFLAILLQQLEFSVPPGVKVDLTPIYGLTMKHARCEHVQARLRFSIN

SMILES: CN1C(=O)/C(=C2/C(=O)Nc3ccccc32)c2ccccc21 [Meisoindigo, 3-(1,2-dihydro-2-oxo-3H-indol-3-ylidene)-1,3-dihydro-1-methyl-2H-indol-2-one]
- metabolism by enzyme [1]: metabolized
- activity against cells [2]: activity
- Bcl-2 [3]: downregulation
- p21 [3]: upregulation
- p27 [3]: upregulation
- activity against cells [4]: activity
- mechanism of apoptosis [5]: novel caspase-dependent pathway
- Ahi-1 [6]: upregulation
- activity against cells [7]: activity
- activity against cells [8]: activity
- efficacy in model [9]: effective
- c-myb gene expression [10]: downregulation
- differentiation [10]: promotes differentiation
- metabolic routes [11]: N-demethylation and mono ring hydroxylation
- cardiac, hepatic, or renal adverse effects ([12]; patients): no cardiac, hepatic, or renal adverse effects
- mild nausea and vomiting ([12]; patients, spontaneously disappeared in two weeks): 30%
- tolerability ([12]; several patient populations, single agent or in combination with chemotherapy): well tolerated
- activity against cells [13]: activity
- efficacy in model [14]: effective
- inhibition of enzyme, concentration [15]: low micromolar concentrations
- tubule formulation [16]: decreased
- cleavage of pro-caspase 3, 8, 9 and PARP [17]: stimulates the cleavage
- VEGF protection [18]: decreased
- binding to kinase [19]: significant binding
- kinase inhibition in screen ([20]; FIG. 6): significant inhibition
- binding to kinase ([20]; FIGS. 4 and 6): strongest binding
- binding to kinase [21]: significant binding
- genotoxicity [22]: not genotoxic
- efficacy in model [23]: effective
- activity against cells [24]: activity
- metabolism by enzyme [25]: metabolized
- concentration at which GSK-3β is inhibited [26]: 5 to 50 nM
- tolerability [27]: well tolerated
- VCAM-1 [28]: decreased
- apoptosis [29]: apoptosis
- inhibition of enzyme, concentration [30]: low micromolar concentrations
- spleen size [31]: dose-dependent spleen size reduction
- efficacy in model [32]: effective
- metabolism by enzyme [33]: metabolized
- DNA and RNA synthesis [34]: inhibition
- activity against cells [35]: activity
- tolerability [36]: well tolerated
- activity against cells [37]: activity
- cell cycle specific effect [38]: arrest in G(O)/G1
- c-myc [39]: decreases
- β-catenin [39]: decreases
- killing of malignant cell lines (viability) [40]: effective in killing
- cell cycle specific effect [41]: G2/M arrest
- complete hematologic response, patients ([42]; 50-200 mg/d p.o.): 33%
- partial hematologic response, patients ([42]; 50-200 mg/d p.o.): 58%
- reduction of leukocyte count, median ([42]; 50-200 mg/d p.o.): 31 days
- reduction of splenomegaly, median ([42]; 50-200 mg/d p.o.): 25 days
- effect of combination with hydroxyurea ([42]; with hydroxyurea): synergistic effect
- Bak [43]: upregulation
- Bax [43]: upregulation
- genotoxicity [44]: not genotoxic

From patent US10383847B2 (priority 2012, dated 2019)
